Patent US20050239856A1, “Method for prophylaxis and treatment of diabetic complications with 4{alpha-hydroxy-2-methyl-5-(1-imidazolyl)benzyl}-3,5-dimethylbenzoic acid and derivatives” (priority 1995, published 2005)

What was measured:
[1] = system: TXA2 biosynthesis (urinary TXB2); test: Urinary excretion of TXB2, stable metabolite of TXA2, in streptozotocin-induced diabetic rats (Experimental Example 1); type: in vivo, rat; conditions: STZ diabetic rats; for urinary TXB2 excretion: 7 weeks after administration, mean ± standard error
Procedure: (§1) Diabetes was induced by intravenous administration of streptozotocin (65 mg/kg) to 6-week-old male Sprague-Dawley rats. Starting from 2-4 weeks after the onset of diabetes, a 0.5% hydroxypropylmethylcellulose suspension containing the compound of the present invention was orally administered once a day. At 4-7 weeks from the administration, tail nerve conduction velocity was measured with an induction potential test device (Neuropack 2, manufactured by Nihon Kohden) according to a modification of the method of Miyoshi (Fukuoka Medical Journal, vol. 62, pp. 588-603 (1971)). To be specific, subcutaneous temperature at the tail was maintained at 37° C. and the tail nerve was percutaneously stimulated electrically at 2 stimulation points (interval 6 cm). The distance between stimulation points was divided by the difference between latencies in electromyogram induced to give nerve conduction velocity. As to the test group in Table 1, blood glucose was measured at 6 weeks after administration. At 7 weeks after administration, urinary excretion of TXB2, which is a stable metabolite of TXA2, was measured.

[2] = Blood glucose in streptozotocin-induced diabetic rats (Experimental Example 1); type: in vivo, rat; conditions: STZ diabetic rats; for blood glucose: 6 weeks after administration, mean ± standard error
Procedure: as §1

[3] = system: tail nerve of streptozotocin diabetic Sprague-Dawley rats; test: Tail nerve conduction velocity in rats, administration from 16 weeks after onset of streptozotocin diabetes (Experimental Example 3); type: in vivo, rat; conditions: for tail nerve conduction velocity 5 wks after administration: started 16 weeks after onset of STZ diabetes; for tail nerve conduction velocity 5 wks after administration / tail nerve conduction velocity Before administration: mean ± standard error; for tail nerve conduction velocity Before administration: 16 weeks after onset of STZ diabetes
Procedure: Diabetes was induced by intravenous administration of streptozotocin (65 mg/kg) to 6-week-old male Sprague-Dawley rats. Starting from 16 weeks after the onset of diabetes, a 0.5% hydroxypropylmethylcellulose suspension containing compound A-1 was orally administered once a day. At 5 weeks from the administration, tail nerve conduction velocity was measured with arm induction potential test device (Neuropack 2, manufactured by Nihon Kohden) according to a modification of the method of Miyoshi (Fukuoka Medical Journal, vol. 62, pp. 588-603 (1971)). To be specific, subcutaneous temperature at the tail was maintained at 37° C. and the tail nerve was percutaneously stimulated electrically at 2 stimulation points (interval 6 cm). The distance between the stimulation points was divided by the difference between latencies in induced electromyogram to give nerve conduction velocity.

[4] = system: tail nerve of streptozotocin diabetic Sprague-Dawley rats; test: Tail nerve conduction velocity in streptozotocin-induced diabetic rats (Experimental Example 1); type: in vivo, rat; conditions: STZ diabetic rats; for tail nerve conduction velocity 7 wks after administration / tail nerve conduction velocity 5 wks after administration / tail nerve conduction velocity 4 wks after administration: mean ± standard error; for effect on tail nerve conduction velocity decreased by diabetes (in words): dose-dependent, oral once a day
Procedure: as §1

[5] = system: kidney glomerulus of streptozotocin diabetic Sprague-Dawley rats; test: Degree of glomerular disorder in streptozotocin-induced diabetic rats (Experimental Example 4); type: in vivo, rat; conditions: STZ diabetic rats; for glomerular disorder score: total score of 50 glomeruli (0-4 each), mean ± standard error
Procedure: Diabetes was induced by intravenous administration of streptozotocin (65 mg/kg) to 5-week-old male Sprague-Dawley rats. Starting from 9 weeks after the onset of diabetes, a 0.5% hydroxypropylmethylcellulose suspension containing compound A-1 was orally administered once a day. At 9 weeks from the administration, kidney was removed to determine the degree of glomerular disorder and fixed in a 10% neutral-buffered formalin solution. Tissue sections were stained with hematoxylin/eosin. Glomerulus was evaluated according to the degree of obstruction in 5 stages (0: no obstruction, 1: up to 25% obstruction, 2: up to 50% obstruction, 3: up to 75% obstruction, 4: up to 100% obstruction). Fifty glomeruli were evaluated per sample and the total score was used as an index of the degree of glomerular disorder. This operation was done under a single blind condition.

[6] = system: sciatic nerve of spontaneously diabetic mice (db/db); test: Sciatic nerve conduction velocity in spontaneously diabetic mice (db/db) (Experimental Example 2); type: in vivo, mouse; conditions: for sciatic nerve conduction velocity 4 wks after administration / sciatic nerve conduction velocity 5 wks after administration: db/db mice, mean ± standard error; for effect on sciatic nerve conduction velocity (in words): spontaneous diabetic mice, oral once a day
Procedure: A 0.5% hydroxypropylmethylcellulose suspension containing the compound of the present invention was orally administered to 9-week-old male spontaneously diabetic mice (db/db) once a day. At 4-5 weeks from the administration, sciatic nerve conduction velocity was measured with an induction potential test device (Neuropack 2, manufactured by Nihon Kohden) according to a modification of the method of Yasuda (Diabetes, 38, p. 832-838 (1989)). To be specific, rectal temperature was maintained at 37° C. and two points of sciatic notch and ankle were percutaneously stimulated electrically. The distance between the stimulation points was divided by the difference between latencies in induced electromyogram to give nerve conduction velocity.

[7] = system: tail nerve of rats with diabetes; test: Tail nerve conduction velocity in rats with diabetes (sodium ozagrel); type: in vivo, rat
biosynthesis of TXA2 = test: Biosynthesis of TXA2 in rats with diabetes (sodium ozagrel); type: in vivo, rat

SMILES: Cc1ccc(-n2ccnc2)cc1C(O)c1c(C)cc(C(=O)[O-])cc1C.O.O.[Na+] (stereo not drawn) [Compound A-1, sodium 4-[α-hydroxy-2-methyl-5-(1-imidazolyl)benzyl]-3,5-dimethylbenzoate dihydrate]
- urinary TXB2 excretion ([1]; 0.03 mg/kg/day oral once a day): 10.6 ± 1.4 ng/day/100 g body weight
- urinary TXB2 excretion ([1]; 0.1 mg/kg/day oral once a day): 6.9 ± 0.8 ng/day/100 g body weight
- urinary TXB2 excretion ([1]; 0.3 mg/kg/day oral once a day): 5.1 ± 0.5 ng/day/100 g body weight
- urinary TXB2 excretion ([1]; 1.0 mg/kg/day oral once a day): 3.4 ± 0.3 ng/day/100 g body weight
- effect on urinary TXB2 excretion increased by diabetes (in words) ([1]; dose-dependent, 0.03-1.0 mg/kg/day): decreased urinary TXB2 excretion
- blood glucose ([2]; 0.03 mg/kg/day oral once a day): 718.3 ± 50.7 mg/dL
- blood glucose ([2]; 0.1 mg/kg/day oral once a day): 772.1 ± 32.4 mg/dL
- blood glucose ([2]; 0.3 mg/kg/day oral once a day): 791.9 ± 65.5 mg/dL
- blood glucose ([2]; 1.0 mg/kg/day oral once a day): 718.4 ± 64.1 mg/dL
- effect on blood glucose (in words) ([2]; 0.03-1.0 mg/kg/day): without affecting the blood glucose
- tail nerve conduction velocity 5 wks after administration ([3]; 0.3 mg/kg/day oral once a day): 48.3 ± 0.6 m/sec
- tail nerve conduction velocity 5 wks after administration ([3]; 1 mg/kg/day oral once a day): 49.4 ± 0.4 m/sec
- tail nerve conduction velocity 5 wks after administration ([3]; 3 mg/kg/day oral once a day): 50.2 ± 0.5 m/sec
- effect on tail nerve conduction velocity lowered by the progression of diabetes (in words) ([3]; administration from 16 weeks after onset of diabetes, dose-dependent): increased tail nerve conduction velocity
- tail nerve conduction velocity Before administration ([3]; baseline of the 0.3 mg/kg/day group): 46.2 ± 0.5 m/sec
- tail nerve conduction velocity Before administration ([3]; baseline of the 1 mg/kg/day group): 46.1 ± 0.4 m/sec
- tail nerve conduction velocity Before administration ([3]; baseline of the 3 mg/kg/day group): 46.0 ± 0.3 m/sec
- tail nerve conduction velocity 7 wks after administration ([4]; 0.03 mg/kg/day oral once a day): 42.0 ± 0.5 m/sec
- tail nerve conduction velocity 7 wks after administration ([4]; 0.1 mg/kg/day oral once a day): 43.4 ± 0.4 m/sec
- tail nerve conduction velocity 7 wks after administration ([4]; 0.3 mg/kg/day oral once a day): 43.7 ± 0.3 m/sec
- tail nerve conduction velocity 7 wks after administration ([4]; 1.0 mg/kg/day oral once a day): 44.8 ± 0.4 m/sec
- effect on tail nerve conduction velocity decreased by diabetes (in words) [4]: increased tail nerve conduction velocity
- glomerular disorder score ([5]; 0.3 mg/kg/day oral once a day for 9 weeks): 90.8 ± 10.0
- glomerular disorder score ([5]; 1 mg/kg/day oral once a day for 9 weeks): 65.7 ± 12.0
- glomerular disorder score ([5]; 10 mg/kg/day oral once a day for 9 weeks): 55.4 ± 9.2
- effect on glomerular disorder due to diabetes (in words) ([5]; dose-dependent): suppressed glomerular disorder

SMILES: Cc1ccc(-n2ccnc2)cc1[C@H](O)c1c(C)cc(C(=O)[O-])cc1C.O.[Na+] [Compound A-2, sodium (S)-(−)-4[α-hydroxy-2-methyl-5-(1-imidazolyl)benzyl]-3,5-dimethylbenzoate 2/3 hydrate]
- tail nerve conduction velocity 5 wks after administration ([4]; 0.03 mg/kg/day oral once a day): 40.7 ± 0.5 m/sec
- tail nerve conduction velocity 5 wks after administration ([4]; 0.1 mg/kg/day oral once a day): 42.6 ± 0.4 m/sec
- tail nerve conduction velocity 5 wks after administration ([4]; 0.3 mg/kg/day oral once a day): 43.0 ± 0.3 m/sec
- tail nerve conduction velocity 5 wks after administration ([4]; 1 mg/kg/day oral once a day): 42.6 ± 0.5 m/sec
- effect on tail nerve conduction velocity decreased by diabetes (in words) [4]: suppressed decrease in tail nerve conduction velocity
- sciatic nerve conduction velocity 4 wks after administration ([6]; 0.05 mg/kg/day oral once a day): 46.6 ± 1.5 m/sec
- sciatic nerve conduction velocity 4 wks after administration ([6]; 0.5 mg/kg/day oral once a day): 51.9 ± 1.2 m/sec
- sciatic nerve conduction velocity 4 wks after administration ([6]; 5 mg/kg/day oral once a day): 51.7 ± 1.4 m/sec
- effect on sciatic nerve conduction velocity (in words) [6]: increased sciatic nerve conduction velocity

SMILES: Cc1ccc(-n2ccnc2)cc1[C@H](O)c1c(C)cc(C(=O)O)cc1C [Compound A-4, (S)-(−)-4-[α-hydroxy-2-methyl-5-(1-imidazolyl)benzyl]-3,5-dimethylbenzoic acid]
- tail nerve conduction velocity 4 wks after administration ([4]; 0.3 mg/kg/day oral once a day): 40.9 ± 0.5 m/sec
- tail nerve conduction velocity 4 wks after administration ([4]; 1 mg/kg/day oral once a day): 41.3 ± 0.4 m/sec
- tail nerve conduction velocity 4 wks after administration ([4]; 3 mg/kg/day oral once a day): 41.7 ± 0.5 m/sec
- effect on tail nerve conduction velocity decreased by diabetes (in words) [4]: suppressed decrease in tail nerve conduction velocity
- sciatic nerve conduction velocity 5 wks after administration ([6]; 0.3 mg/kg/day oral once a day): 45.2 ± 1.2 m/sec
- sciatic nerve conduction velocity 5 wks after administration ([6]; 1 mg/kg/day oral once a day): 45.9 ± 0.7 m/sec
- sciatic nerve conduction velocity 5 wks after administration ([6]; 3 mg/kg/day oral once a day): 45.3 ± 0.8 m/sec
- effect on sciatic nerve conduction velocity (in words) [6]: increased sciatic nerve conduction velocity

SMILES: O=C([O-])/C=C/c1ccc(Cn2ccnc2)cc1.[Na+] [sodium ozagrel, sodium (E)-p-(imidazol-1-ylmethyl)cinnamate]
- effect on decreased tail nerve conduction velocity (in words) [7]: does not improve decreased tail nerve conduction velocity
- effect on promotion of biosynthesis of TXA2 (in words) (biosynthesis of TXA2): suppresses promotion of biosynthesis of TXA2
